Experimental data reported in patent publication US8338565B2, “Macrocyclic compounds for inhibition of tumor necrosis factor alpha” (Ensemble Therapeutics Corporation, priority 2008, dated 2012).
Where two headings read alike, the source gives them in different places. Numbered stars: 1 amine (or outer) side, 2 acyl side, 3 side chain; on linkers, the order of the positions; unused ones are H or OH. Bridge positions count the residues as written; N and C are the ends. Square brackets hold non-standard residues; d marks the D form. Peptide text beside a SMILES is read from it. Bip(4'-Cl) = N[C@@H](Cc1ccc(-c2ccc(Cl)cc2)cc1)C(=O)O; Phe(4-COOH) = N[C@@H](Cc1ccc(C(=O)O)cc1)C(=O)O; Bip = N[C@@H](Cc1ccc(-c2ccccc2)cc1)C(=O)O; dPhe(4-NH2) = Nc1ccc(C[C@@H](N)C(=O)O)cc1; Phe(4-Br) = N[C@@H](Cc1ccc(Br)cc1)C(=O)O; Phe(4-NH2) = Nc1ccc(C[C@H](N)C(=O)O)cc1; d(hPhe) = N[C@H](CCc1ccccc1)C(=O)O; d2Thi = N[C@H](Cc1cccs1)C(=O)O; Suc = O=C(CCC(=O)[*:2])[*:1]; Nphe = O=C(O)CNCc1ccccc1; Ac3c = NC1(C(=O)O)CC1; GABA = NCCCC(=O)O; βAla = NCCC(=O)O

Key:
[1] = biological target: T1, TNFα / TNFα receptor (TNFα R1/Fc) (Homo sapiens, UniProt P01375); assay: Inhibition of binding of TNFα to the TNFα receptor (plate ELISA competition); conditions: Table 2
T1 construct: purchased R&D Systems
How it was run: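 Plates were coated with TNFα at 15 nM. Test compound and 8.33 nM receptor-Fc (PBST, 2% DMSO) were first mixed in solution for 30 min at room temperature, then transferred to the plates for another 30 min. Competition was read by absorbance at 450 nm after HRP anti-human IgG Fc detection with TMB.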

[2] = system: TNF-α (degradation of IkB in HeLa cells or A431 cells); assay: Human cell-based assay: inhibition of TNF-α induced degradation of IkB; conditions: for inhibition at 5 µM: read-out: Inhibition at Various Compound Concentrations, 5 μM; for inhibition at 10 µM: read-out: Inhibition at Various Compound Concentrations, 10 μM; for inhibition at 25 µM: 25 μM compound, read-out: Inhibition at Various Compound Concentrations, 25 μM
Protocol: We used a human cell-based assay to determine the TNF-α antagonistic activity of the compounds of this invention based upon the ability of the compounds to inhibit the degradation of IkB in those cells. The assay was performed on either HeLa cells or A431 cells.
On Day 1, wells of a 24-well tissue culture plate were seeded with cells that had been harvested from cultures in T-75 flasks by standard trypsin/EDTA treatment. The harvested cells were suspended in EMEM/10% FBS/P/S (100,000 HeLa cells/mL or 200,000 A431 cells/mL) and 1 mL aliquots were placed into each well. The cells were incubated overnight at 37° C. in a humidified CO2 incubator. On day 2, the cells were approximately 95% confluent.
Test and control compounds were diluted to a 1 mM solution by dilution in DMSO. The assay was run in Costar tubes. Into each tube was placed 2.5 or 5.0 μL of test compound (for testing 5 μM and 10 μM concentrations, respectively), 2.5 μL of 100× TNF-α solution (200 ng/mL TNF-α in EMEM containing 1μg/mL cycloheximide) and, for those tubes containing 2.5 μL of compound, an additional 2.5 μL of DMSO. To each tube was then added 0.5 mL of EMEM containing 1μg/mL cycloheximide. Negative control tubes contained either a) no compound, or b) no TNF-α. Tubes were then incubated for 30 minutes at room temperature.
Once incubation had begun, the media was aspirated from the cells in the 24-well plates. Sufficient EMEM/10% FBS/P/S containing 1 ug/mL cycloheximide was then added to cover the cells (approximately 3 mL) and the cells were retuned to the 37° C. humidified CO2 incubator until compound incubation was completed. The media was then aspirated from the cells, 0.2 mL of the compound solution was added and the cells re-incubated at 37° C. for 30 minutes. The plates were then placed on ice, the compound solution was aspirated from each well, and the cells washed once with 1 mL of cold PBS. Cells were then fixed with 500 μL of 3.7% formaldehyde in PBS (“fix solution”) for 20 minutes at room temperature. The fix solution was decanted and the cells permeabilized by 4× washing with 500 uL PBS/0.1% Triton X-100. After the final permeabilization wash, the cells were treated with 500 uL of Odyssey blocking buffer (OBB) and incubated at room temperature with shaking for 90 minutes.
The OBB was decanted and then to each well was then added 125 μL each of mouse anti-IkB CST#4814 (diluted 1:200 in OBB) and rabbit anti-beta-tubulin CST#2146 (diluted 1:200 in OBB). Plates were sealed with parafin and incubated overnight at room temperature with shaking.
On day 3, the antibody solution was removed from the cells and the cells were washed 5× with 0.5 mL PBST for five minutes each on a shaker. To each well was then aded 125 μL of a secondary antibody solution containing goat anti-mouse IgG-IRDye 800 and goat anti-rabbit IgG-IRDye (each diluted 1:500 in OBB+0.2% Tween 20). The plates were covered with aluminum foil and incubated for 1 hour at room temperature with shaking. The secondary antibody solution was removed and the cells washed 3× with 0.5 mL PBST for five minutes each on a shaker. Cells were then scanned by LICOR with the following settings: 700 intensity=6.0, 800 intensity=6.5; microplate2 settings with 3.0 mm offset; 169 resolution. LICOR values were fitted to an equation for a sigmoidal curve and IC50 values calculated from the fitted parameters. […] Blank cells indicate that the compound was not tested at that concentration. Certain compounds that were tested more than once and the values reflect the average of the multiple tests.

[3] = read-out: Activity (IC50, inhibition of TNFα binding to TNFα R1/Fc)
[4] = 5 μM compound, HeLa or A431 cells
[5] = 10 μM compound, HeLa or A431 cells
[6] = Activity (IC50, inhibition of TNFα binding to TNFα R1/Fc)

T1 sequence (P01375 77-233 limits assumed, species assumed): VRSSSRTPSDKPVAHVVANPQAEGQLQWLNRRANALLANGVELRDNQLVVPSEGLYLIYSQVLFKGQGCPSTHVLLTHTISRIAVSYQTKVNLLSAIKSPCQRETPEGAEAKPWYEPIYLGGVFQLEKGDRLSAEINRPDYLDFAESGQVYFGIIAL

IC50 [1, 3] [µM]	SMILES	inhibition at 5 µM [2, 4] [%]	inhibition at 10 µM [2, 5] [%]	inhibition at 25 µM ([2]; HeLa or A431 cells) [%]	IC50 [1, 6] [µM]	inhibition at 5 µM [2] [%]	inhibition at 10 µM [2] [%]
< 10	O=C(O)CCCCCNC(=O)[C@@H]1Cc2ccc(cc2)OCC(=O)N[C@H](Cc2cccs2)C(=O)N[C@@H](Cc2ccc(-c3ccccc3)cc2)C(=O)N[C@H](CCc2ccccc2)C(=O)N1 [Compound 395]	< 10	< 10	–	–	–	–
< 10	O=C(O)CN(Cc1ccccc1)C(=O)[C@@H]1Cc2ccc(cc2)NC(=O)CCC(=O)N[C@H](Cc2cccs2)C(=O)N[C@@H](Cc2ccc(-c3ccccc3)cc2)C(=O)N[C@H](Cc2ccccc2)C(=O)N1 [Compound 36] ([d2Thi][Bip][dF][Phe(4-NH2)][Nphe]-OH; linker N-4 via Suc)	10 to 50	50 to 80	< 10	–	–	–
< 10	O=C1CCC(=O)N[C@H](CCc2ccccc2)C(=O)N[C@@H](Cc2ccc(-c3ccc(Cl)cc3)cc2)C(=O)N[C@H](Cc2ccccc2)C(=O)N[C@H](C(=O)O)Cc2ccc(cc2)N1 [Compound 116] ([d(hPhe)][Bip(4'-Cl)][dF][Phe(4-NH2)]-OH; linker N-4 via Suc)	10 to 50	< 10	–	–	–	–
< 10	O=C1CCC(=O)N[C@H](Cc2cccs2)C(=O)N[C@@H](Cc2ccc(-c3ccccc3)cc2)C(=O)N[C@H](Cc2ccccc2)C(=O)N[C@H](C(=O)NC2(C(=O)O)CC2)Cc2ccc(cc2)N1 [Compound 39] ([d2Thi][Bip][dF][Phe(4-NH2)][Ac3c]-OH; linker N-4 via Suc)	–	10 to 50	–	–	–	–
< 10	O=C1CCC(=O)N[C@H](Cc2cccs2)C(=O)N[C@@H](Cc2ccc(-c3ccccc3)cc2)C(=O)N[C@H](CCc2ccccc2)C(=O)N[C@H](C(=O)O)Cc2ccc(cc2)N1 [Compound 47] ([d2Thi][Bip][d(hPhe)][Phe(4-NH2)]-OH; linker N-4 via Suc)	–	< 10	–	–	–	–
< 10	C[C@H](NC(=O)[C@@H]1Cc2ccc(cc2)OCC(=O)N[C@@H](Cc2cccs2)C(=O)N[C@@H](Cc2ccc(-c3ccccc3)cc2)C(=O)N[C@@H](Cc2ccccc2)C(=O)N1)C(=O)O [Compound 326]	10 to 50	10 to 50	–	–	–	–
–	O=C1COc2ccc(cc2)C[C@@H](C(=O)N[C@@H](Cc2ccccc2)C(=O)O)NC(=O)[C@@H](CCc2ccccc2)NC(=O)[C@H](Cc2ccc(-c3ccccc3)cc2)NC(=O)[C@@H](CCc2ccccc2)N1 [Compound 158]	–	–	–	< 10	50 to 80	50 to 80
–	O=C1COc2ccc(cc2)C[C@@H](C(=O)N[C@@H](Cc2ccc(O)cc2)C(=O)O)NC(=O)[C@@H](CCc2ccccc2)NC(=O)[C@H](Cc2ccc(-c3ccccc3)cc2)NC(=O)[C@@H](Cc2cccs2)N1 [Compound 300]	–	–	–	< 10	–	10 to 50
< 10	O=C(O)CCNC(=O)[C@@H]1Cc2ccc(cc2)NC(=O)CCC(=O)N[C@H](Cc2cccs2)C(=O)N[C@@H](Cc2ccc(-c3ccccc3)cc2)C(=O)N[C@H](Cc2ccccc2)C(=O)N1 [Compound 21] ([d2Thi][Bip][dF][Phe(4-NH2)][βAla]-OH; linker N-4 via Suc)	–	–	< 10	–	–	–
< 10	C[C@H](NC(=O)[C@@H]1Cc2ccc(cc2)OCC(=O)N[C@H](Cc2cccs2)C(=O)N[C@@H](Cc2ccc(-c3ccccc3)cc2)C(=O)N[C@H](CCc2ccccc2)C(=O)N1)C(=O)O [Compound 302]	10 to 50	10 to 50	–	–	–	–
< 10	NCCCC(=O)N[C@@H]1CC(=O)N[C@H](Cc2cccs2)C(=O)N[C@@H](Cc2ccc(-c3ccccc3)cc2)C(=O)N[C@H](Cc2ccccc2)C(=O)N[C@H](C(=O)O)Cc2ccc(cc2)NC1=O [Compound 382]	10 to 50	< 10	–	–	–	–
< 10	COC(=O)c1ccc(-c2ccc(C[C@@H]3NC(=O)[C@@H](Cc4cccs4)NC(=O)[C@H](O)[C@@H](O)C(=O)Nc4ccc(cc4)C[C@@H](C(=O)O)NC(=O)[C@@H](Cc4ccccc4)NC3=O)cc2)cc1 [Compound 332]	< 10	–	–	–	–	–
< 10	O=C1CCC(=O)N[C@H](Cc2cccs2)C(=O)N[C@@H](Cc2ccc(-c3ccccc3)cc2)C(=O)N[C@H](Cc2ccccc2)C(=O)N[C@@H](C(=O)N[C@@H](Cc2ccccc2)C(=O)O)Cc2ccc(cc2)N1 [Compound 198] ([d2Thi][Bip][dF][dPhe(4-NH2)]F-OH; linker N-4 via Suc)	–	–	50 to 80	–	–	–
< 10	O=C(O)CCNC(=O)[C@@H]1Cc2ccc(cc2)OCC(=O)N[C@@H](Cc2cccs2)C(=O)N[C@@H](Cc2ccc(-c3ccccc3)cc2)C(=O)N[C@@H](Cc2ccccc2)C(=O)N1 [Compound 339]	< 10	10 to 50	–	–	–	–
10 to 30	CC(=O)NCCCC[C@@H]1NC(=O)[C@@H](Cc2ccc(-c3ccccc3)cc2)NC(=O)[C@H](Cc2cccs2)NC(=O)COc2ccc(cc2)C[C@@H](C(=O)O)NC1=O [Compound 369]	< 10	< 10	–	–	–	–
< 10	O=C(O)[C@@H]1Cc2ccc(cc2)NC(=O)[C@H](O)[C@@H](O)C(=O)N[C@H](Cc2cccs2)C(=O)N[C@@H](Cc2ccc(-c3ccccc3)cc2)C(=O)N[C@@H](CCc2ccccc2)C(=O)N1 [Compound 290]	< 10	< 10	–	–	–	–
< 10	O=C1CCC(=O)N[C@H](Cc2cccs2)C(=O)N[C@@H](Cc2ccc(-c3ccccc3)cc2)C(=O)N[C@H](Cc2ccccc2)C(=O)N[C@@H](C(=O)O)Cc2ccc(cc2)N1 [Compound 196] ([d2Thi][Bip][dF][dPhe(4-NH2)]-OH; linker N-4 via Suc)	–	–	< 10	–	–	–
< 10	O=C1CCC(=O)N[C@H](Cc2cccs2)C(=O)N[C@@H](Cc2ccc(Br)cc2)C(=O)N[C@H](Cc2ccccc2)C(=O)N[C@H](C(=O)N[C@@H](Cc2ccccc2)C(=O)O)Cc2ccc(cc2)N1 [Compound 201] ([d2Thi][Phe(4-Br)][dF][Phe(4-NH2)]F-OH; linker N-4 via Suc)	–	10 to 50	–	–	–	–
< 10	O=C1CCNC(=O)c2ccc(cc2)C[C@@H](C(=O)O)NC(=O)[C@@H](Cc2ccccc2)NC(=O)[C@H](Cc2ccc(-c3ccccc3)cc2)NC(=O)[C@@H](CCc2ccccc2)N1 [Compound 248] ([βAla][d(hPhe)][Bip][dF][Phe(4-COOH)]-OH; lactam N-5)	< 10	10 to 50	–	–	–	–
< 10	NCCCC(=O)N[C@@H]1CC(=O)Nc2ccc(cc2)C[C@@H](C(=O)O)NC(=O)[C@@H](Cc2ccccc2)NC(=O)[C@H](Cc2ccc(-c3ccccc3)cc2)NC(=O)[C@@H](Cc2cccs2)NC1=O [Compound 380] (H-[GABA][dD][d2Thi][Bip][dF][Phe(4-NH2)]-OH; lactam 2-6)	< 10	< 10	–	–	–	–

SMILES	IC50 [1, 3] [µM]	inhibition at 5 µM [2, 4] [%]	inhibition at 10 µM [2, 5] [%]	inhibition at 25 µM ([2]; HeLa or A431 cells) [%]	IC50 [1, 6] [µM]	inhibition at 5 µM [2] [%]	inhibition at 10 µM [2] [%]
O=C1COc2ccc(cc2)C[C@@H](C(=O)O)NC(=O)[C@H](Cc2ccccc2)NC(=O)[C@H](Cc2ccc(-c3ccccc3)cc2)NC(=O)[C@H](Cc2cccs2)N1 [Compound 212]	< 10	–	–	–	–	< 10	< 10
